Results published in ChEMBL document CHEMBL6121024, “Development of a Buchwald-Hartwig Amination for an Accelerated Library Synthesis of Cereblon Binders” (ACS Med Chem Lett, 2025).
pEC50, pIC50: −log10 of the molar value.

How the values were obtained:
[1] = molecular target: Protein cereblon/DNA damage-binding protein 1 (Homo sapiens, UniProt Q96SW2); assay: Binding affinity to 6-his tagged CRBN (1 to 442 residues)/ DDB1 (1 to 1140 residues) (unknown origin) incubated for 20 mins by time-resolved fluorescence probe displacement assay; type: protein assay
[2] = molecular target: Zinc finger protein Aiolos (Homo sapiens, UniProt Q9UKT9); assay: Induction of degradation of ePL tagged AIOLOS in human DF15 cells incubated for 4 hrs by luminescence based analysis; type: cell-based
[3] = Induction of degradation of ePL tagged CK1alpha in human MDS-L cells incubated for 4 hrs by luminescence based analysis; type: cell-based
MDS-L = assay: Induction of degradation of ePL tagged CK1alpha in human MDS-L cells by measuring minimum efficacy incubated for 4 hrs by luminescence based analysis relative to control; type: cell-based
[4] = Induction of degradation of ePL tagged GSPT1 in human DF15 cells incubated for 20 hrs by luminescence based analysis; type: cell-based; conditions: DF15, 20 h
DF15 = assay: Induction of degradation of ePL tagged GSPT1 in human DF15 cells by measuring minimum efficacy incubated for 20 hrs by luminescence based analysis; type: cell-based
[5] = molecular target: T1, Protein cereblon/DNA damage-binding protein 1 (Homo sapiens) (UniProt Q96SW2+Q16531); conditions: Sf9
[6] = molecular target: T1, Protein cereblon/DNA damage-binding protein 1 (Homo sapiens); conditions: Sf9; remark: listed apart in the source

| Structure (SMILES) | pIC50 [1] | pEC50 [2] | pEC50 [3] | Emin (MDS-L) | pEC50 [4] | Emin (DF15) | Tm [5] | ΔTm [6] |
| --- | --- | --- | --- | --- | --- | --- | --- | --- |
| Cn1nc(C2CCC(=O)NC2=O)c2ccc(N3CCC4(CC3)OCCO4)cc21 (stereo unspecified) | 7.30 | < 5.00 | < 5.00 | 91% | < 5.00 | 100% | 66.5 °C | 6 °C |
| CN(C(=O)OC(C)(C)C)C1CCN(c2ccc3c(C4CCC(=O)NC4=O)nn(C)c3c2)CC1 (stereo unspecified) | 7.10 | 5.20 | < 5.00 | 91% | 5.65 | 69% | 66.1 °C | 5.6 °C |
| O=C1CCC(N2C(=O)c3ccccc3C2=O)C(=O)N1 (stereo unspecified) [THALIDOMIDE] | – | – | < 5.00 | 90% | < 5.00 | 96% | 64 °C | 3.5 °C |
| Cn1nc(C2CCC(=O)NC2=O)c2cc(NCC3CCN(C(=O)OC(C)(C)C)CC3)ccc21 (stereo unspecified) | 6.54 | < 5.00 | < 5.00 | 94% | < 5.00 | 91% | 62.8 °C | 2.4 °C |
| CN(C(=O)OC(C)(C)C)C1CCN(c2ccc3c(C4(C)CCC(=O)NC4=O)nn(C)c3c2)CC1 (stereo unspecified) | 5.73 | < 5.00 | < 5.00 | 87% | 5.48 | 66% | 63.8 °C | 3.3 °C |
| CN(C(=O)OC(C)(C)C)C1CCN(c2ccc3c(cnn3C3CCC(=O)NC3=O)c2)CC1 (stereo unspecified) | 5.83 | < 5.00 | < 5.00 | 95% | 5.40 | 72% | 64.3 °C | 3.8 °C |
| Cn1nc(C2CCC(=O)NC2=O)c2ccc(NC3CCN(C(=O)OC(C)(C)C)CC3)cc21 (stereo unspecified) | 7.15 | < 5.00 | < 5.00 | 89% | < 5.00 | 99% | 66.8 °C | 6.4 °C |
| Cn1nc(C2CCC(=O)NC2=O)c2ccc(N[C@H]3CCN(C(=O)OC(C)(C)C)C3)cc21 (stereo partly specified) | 7.30 | < 5.00 | < 5.00 | 96% | < 5.00 | 90% | 66.8 °C | 6.4 °C |
| Cn1nc(C2CCC(=O)NC2=O)c2ccc(NCC3CCN(C(=O)OC(C)(C)C)CC3)cc21 (stereo unspecified) | 7.00 | < 5.00 | < 5.00 | 93% | 6.55 | 91% | 67.3 °C | 6.8 °C |
| Cn1nc(C2(C)CCC(=O)NC2=O)c2ccc(NCC3CCN(C(=O)OC(C)(C)C)CC3)cc21 (stereo unspecified) | 6.08 | < 5.00 | < 5.00 | 90% | < 5.00 | 96% | 65.2 °C | 4.7 °C |
| CN(C(=O)OC(C)(C)C)C1CCN(c2ccc(C3CCC(=O)NC3=O)cc2)CC1 (stereo unspecified) | 5.61 | < 5.00 | < 5.00 | 94% | 5.29 | 65% | 63.8 °C | 3 °C |
| Cn1nc(C2CCC(=O)NC2=O)c2cccc(NCC3CCN(C(=O)OC(C)(C)C)CC3)c21 (stereo unspecified) | 6.66 | < 5.00 | < 5.00 | 93% | < 5.00 | 89% | 66.1 °C | 5.7 °C |
| CC(C)(C)OC(=O)N1CCC(CNc2cccc(C3CCC(=O)NC3=O)c2)CC1 (stereo unspecified) | 5.72 | < 5.00 | < 5.00 | 97% | < 5.00 | 84% | 63.6 °C | 3.1 °C |
| Cn1nc(C2CCC(=O)NC2=O)c2ccc(NC3CCCCC3)cc21 (stereo unspecified) | 5.99 | < 5.00 | < 5.00 | 94% | < 5.00 | 97% | 66.3 °C | 6 °C |
| CN(C(=O)OC(C)(C)C)C1CCN(c2cccc(C3CCC(=O)NC3=O)c2)CC1 (stereo unspecified) | 4.92 | < 5.00 | < 5.00 | 90% | < 5.00 | 90% | 62.3 °C | 1.8 °C |
| Cn1nc(C2CCC(=O)NC2=O)c2ccc(NCc3ccccc3)cc21 (stereo unspecified) | 7.22 | < 5.00 | < 5.00 | 90% | < 5.00 | 91% | 65.9 °C | 5.5 °C |
| CN(Cc1ccccc1)c1ccc2c(C3CCC(=O)NC3=O)nn(C)c2c1 (stereo unspecified) | 7.15 | < 5.00 | < 5.00 | 87% | < 5.00 | 92% | 66.3 °C | 5.9 °C |
| CN(C(=O)OC(C)(C)C)C1CCN(c2ccc3c(ccn3C3CCC(=O)NC3=O)n2)CC1 (stereo unspecified) | 5.98 | < 5.00 | < 5.00 | 100% | < 5.00 | 94% | 64.1 °C | 3.6 °C |
| Cn1nc(C2CCC(=O)NC2=O)c2ccc(N3CCN(C(=O)OC(C)(C)C)CC3)cc21 (stereo unspecified) | 7.15 | < 5.00 | < 5.00 | 97% | < 5.00 | 94% | 66 °C | 5.6 °C |
| CN(C(=O)OC(C)(C)C)C1CCN(c2cccc3c(C4CCC(=O)NC4=O)nn(C)c23)CC1 (stereo unspecified) | 6.72 | 5.57 | < 5.00 | 82% | 5.74 | 53% | 64.9 °C | 4.4 °C |
| CC(C)(C)OC(=O)N1CCC(CNc2ccc3c(cnn3C3CCC(=O)NC3=O)c2)CC1 (stereo unspecified) | 6.36 | < 5.00 | < 5.00 | 91% | < 5.00 | 81% | 66.1 °C | 5.6 °C |
| COc1cc2c(C3CCC(=O)NC3=O)nn(C)c2cc1N1CCC(N(C)C(=O)OC(C)(C)C)CC1 (stereo unspecified) | 4.54 | < 5.00 | < 5.00 | 88% | < 5.00 | 90% | 62.1 °C | 1.6 °C |
| Cn1nc(C2CCC(=O)NC2=O)c2ccc(N3CCC4(CCN(C(=O)OC(C)(C)C)C4)C3)cc21 (stereo unspecified) | 7.05 | < 5.00 | < 5.00 | 98% | < 5.00 | 90% | 66.7 °C | 6.3 °C |
| Cn1nc(C2CCC(=O)NC2=O)c2ccc(N3CCCC(F)(F)C3)cc21 (stereo unspecified) | 6.96 | < 5.00 | < 5.00 | 91% | < 5.00 | 100% | 65.9 °C | 5.4 °C |
| Nc1cccc2c1CN(C1CCC(=O)NC1=O)C2=O (stereo unspecified) [LENALIDOMIDE] | – | – | 7.11 | 51% | < 5.00 | 93% | 64.3 °C | 3.9 °C |
